Tested on: NBD1/3D
Experiment: Aggregation analysis using differential static light scattering (DSLS), NBD1 thermal stability
Format: binding, Human
Details: ΔTagg versus DMSO control; compound at 100 μM
Method: Purified recombinant NBD1 was produced using previously described methods (A. Schmidt, J. L. Mendoza, P. J. Thomas (2011) Biochemical and Biophysical Approaches to Probe CFTR Structure (365-376) M. D. Amaral, K. Kunzelmann (eds.), Cystic Fibrosis, Methods in Molecular Biology 741, Springer Science+Business Media). The effect of test compounds on thermal stability of NBD1 was evaluated by differential static light scattering (DSLS) using the Harbinger Stargazer-384 instrument (Epiphyte Three, Toronto, Canada).
Test compounds were dissolved and diluted to desired concentrations in 100% DMSO. The compounds or DMSO controls (100 nL) were stamped into wells of a […] low volume optical plate (Corning Inc., Corning, NY) using the Echo 555 acoustic liquid handler (Labcyte Inc., San Jose, CA).
NBD1 protein was diluted to 0.2 mg/ml in S200 buffer (50 mM Tris-HCl, 150 mM NaCl, 5 mM MgCl2, 2 mM ATP, 2 mM DTT, pH7.6) containing 1% glycerol. 10 uL of protein solution was aliquoted into the 384-well plate harboring the test compounds and 10 uL mineral oil was overlayed onto the protein solution, using the epMotion robotic liquid handler (Eppendorf North America, Hauppauge, NY). After placing into the Stargazer instrument, the plate was heated at 1° C. per minute to 70° C. Images were captured from 25° C. to 70° C. every 0.5° C. At the end of the experiment run, instrument software integrated image files and analyzed data automatically. A […] regression curve was generated for each well, representing the increase in light scattering over time. A temperature of aggregation (Tagg) was calculated based on the inflection point of the curve. To better compare data across experiments the average Tagg for DMSO control wells was calculated and subtracted from values for wells containing compounds to obtain a “ΔTagg” value. These ΔTagg values reflect stabilizing efficacy of the compounds.

SMILES | DSLS NBD1/3D Human Stability delta-T (° C.) @ 100 (μM)
Cc1c(Oc2ccc(F)c(-c3ncc(C(C)(O)c4cccc(CCC(=O)O)c4)[nH]3)c2)c(F)cc2[nH]ccc12 (single isomer, unassigned) [Example 215A, 3-(3-(1-(2-(2-Fluoro-5-((6-fluoro-4-methyl-1H-indol-5-yl)oxy)phenyl)-1H-imidazol-5-yl)-1-hydroxyethyl)phenyl)propanoic acid] | B (B: 5-10° C.)
CC(O)(c1cccc(CCC(=O)O)c1)c1cnc(-c2cc(Oc3c(F)cc4[nH]ccc4c3F)ccc2F)[nH]1 (single isomer, unassigned) [Example 216A, 3-(3-(1-(2-(5-((4,6-difluoro-1H-indol-5-yl)oxy)-2-fluorophenyl)-1H-imidazol-5-yl)-1-hydroxyethyl)phenyl) propanoic acid] | B (B: 5-10° C.)
CC(O)(c1cccc(CCC(=O)O)c1)c1cnc(-c2cc(Oc3c(F)cc4[nH]ccc4c3F)ccc2F)[nH]1 (single isomer, unassigned) [Example 216B, 3-(3-(1-(2-(5-((4,6-difluoro-1H-indol-5-yl)oxy)-2-fluorophenyl)-1H-imidazol-5-yl)-1-hydroxyethyl)phenyl) propanoic acid] | A (A: T ≥ 10° C.)
CC(c1nnc(-c2cc(Oc3c(F)cc4[nH]ccc4c3F)ccc2F)[nH]1)c1cccc(CCC(=O)O)c1F (single isomer, unassigned) [Example 252B, 3-(3-(1-(5-(5-((4,6-difluoro-1H-indol-5-yl)oxy)-2-fluorophenyl)-4H-1,2,4-triazol-3-yl)ethyl)-2-fluorophenyl)propanoic acid] | C (C: ≤5° C.)
CC(c1cn(C)c(-c2cc(Oc3c(F)cc4[nH]ccc4c3F)ccc2F)n1)c1cccc(CCC(=O)O)c1F (single isomer, unassigned) [Example 278A, 3-(3-(1-(2-(5-((4,6-difluoro-1H-indol-5-yl)oxy)-2-fluorophenyl)-1-methyl-1H-imidazol-4-yl)ethyl)-2-fluorophenyl)propanoic acid] | C (C: ≤5° C.)
Cc1c(Oc2cccc(-c3ccn(Cc4cccc(CCC(=O)O)c4)n3)c2)ccc2[nH]ccc12 [Example 1, 3-(3-((3-(3-((4-Methyl-1H-indol-5-yl)oxy)phenyl)-1H-pyrazol-1-yl)methyl)phenyl)propanoic acid] | B (B: 5-10° C.)
Cc1c(Oc2cccc(-c3ccn(C(C)c4cccc(CCC(=O)O)c4)n3)c2)ccc2[nH]ccc12 (centres unmarked) [Example 2, 3-(3-(1-(3-(3-((4-methyl-1H-indol-5-yl)oxy)phenyl)-1H-pyrazol-1-yl)ethyl)phenyl)propanoic acid] | B (B: 5-10° C.)
Cc1c(Oc2cccc(-c3ccnn3C(C)c3cccc(CC(=O)O)c3)c2)ccc2[nH]ccc12 (centres unmarked) [Example 3, 2-(3-(1-(5-(3-((4-methyl-1H-indol-5-yl)oxy)phenyl)-1H-pyrazol-1-yl)ethyl)phenyl)acetic acid] | C (C: ≤5° C.)
Cc1c(Oc2cccc(-c3ccn(C(C)c4cccc(CC(=O)O)c4)n3)c2)ccc2[nH]ccc12 (centres unmarked) [Example 4, 2-(3-(1-(3-(3-((4-methyl-1H-indol-5-yl)oxy)phenyl)-1H-pyrazol-1-yl)ethyl)phenyl)acetic acid] | B (B: 5-10° C.)
Cc1c(Oc2cccc(-c3ccn(Cc4cccc(CC(=O)O)c4)n3)c2)ccc2[nH]ccc12 [Example 5, 2-(3-((3-(3-((4-methyl-1H-indol-5-yl)oxy)phenyl)-1H-pyrazol-1-yl)methyl)phenyl)acetic acid] | B (B: 5-10° C.)
Cc1c(Oc2cccc(-c3ccn(Cc4cccc(CCCO)c4)n3)c2)ccc2[nH]ccc12 [Example 6, 3-(3-((3-(3-((4-Methyl-1H-indol-5-yl)oxy)phenyl)-1H-pyrazol-1-yl)methyl)phenyl)propan-1-ol] | C (C: ≤5° C.)
COC(=O)/C=C/c1cccc(Cn2ccc(-c3cccc(Oc4ccc5[nH]ccc5c4CO)c3)n2)c1 [Example 7, Methyl (E)-3-(3-((3-(3-((4-(hydroxymethyl)-1H-indol-5-yl)oxy)phenyl)-1H-pyrazol-1-yl)methyl)phenyl)acrylate] | C (C: ≤5° C.)
COC(=O)CCc1cccc(Cn2ccc(-c3cccc(Oc4ccc5[nH]ccc5c4CO)c3)n2)c1 [Example 8, Methyl 3-(3-((3-(3-((4-(hydroxymethyl)-1H-indol-5-yl)oxy)phenyl)-1H-pyrazol-1-yl)methyl)phenyl)propanoate] | C (C: ≤5° C.)
O=C(O)/C=C/c1cccc(Cn2ccc(-c3cccc(Oc4ccc5[nH]ccc5c4CO)c3)n2)c1 [Example 9, (E)-3-(3-((3-(3-((4-(Hydroxymethyl)-1H-indol-5-yl)oxy)phenyl)-1H-pyrazol-1-yl)methyl)phenyl)acrylic acid] | B (B: 5-10° C.)
O=C(O)CCc1cccc(Cn2ccc(-c3cccc(Oc4ccc5[nH]ccc5c4CO)c3)n2)c1 [Example 10, 3-(3-((3-(3-((4-(Hydroxymethyl)-1H-indol-5-yl)oxy)phenyl)-1H-pyrazol-1-yl)methyl)phenyl)propanoic acid] | B (B: 5-10° C.)
O=C(O)Cc1cccc(Cn2ccc(-c3cccc(Oc4ccc5[nH]ccc5c4CO)c3)n2)c1 [Example 11, 2-(3-((3-(3-((4-(Hydroxymethyl)-1H-indol-5-yl)oxy)phenyl)-1H-pyrazol-1-yl)methyl)phenyl)acetic acid] | B (B: 5-10° C.)
COP(=O)(Cc1cccc(Cn2ccc(-c3cccc(Oc4ccc5[nH]ccc5c4CO)c3)n2)c1)OC [Example 12, dimethyl (3-((3-(3-((4-(hydroxymethyl)-1H-indol-5-yl)oxy)phenyl)-1H-pyrazol-1-yl)methyl)benzyl)phosphonate] | C (C: ≤5° C.)
COP(=O)(O)Cc1cccc(Cn2ccc(-c3cccc(Oc4ccc5[nH]ccc5c4CO)c3)n2)c1 [Example 13, methyl hydrogen (3-((3-(3-((4-(hydroxymethyl)-1H-indol-5-yl)oxy)phenyl)-1H-pyrazol-1-yl)methyl)benzyl)phosphonate] | B (B: 5-10° C.)
Cc1c(Oc2ccc(F)c(-c3ccn(Cc4cccc(CCC(=O)O)c4)n3)c2)c(F)cc2[nH]ccc12 [Example 14, 3-(3-((3-(2-fluoro-5-((6-fluoro-4-methyl-1H-indol-5-yl)oxy)phenyl)-1H-pyrazol-1-yl)methyl)phenyl)propanoic acid] | B (B: 5-10° C.)
CNC(=O)c1c(Oc2cccc(-c3ccn(Cc4cccc(/C=C/C(=O)O)c4)n3)c2)ccc2[nH]ccc12 [Example 15, (E)-3-(3-((3-(3-((4-(Methylcarbamoyl)-1H-indol-5-yl)oxy)phenyl)-1H-pyrazol-1-yl)methyl)phenyl)acrylic acid] | B (B: 5-10° C.)
CNC(=O)c1c(Oc2cccc(-c3ccn(Cc4cccc(CCC(=O)O)c4)n3)c2)ccc2[nH]ccc12 [Example 16, 3-(3-((3-(3-((4-(Methylcarbamoyl)-1H-indol-5-yl)oxy)phenyl)-1H-pyrazol-1-yl)methyl)phenyl)propanoic acid] | B (B: 5-10° C.)
Cc1c(Oc2ccc(F)c(-c3ccn(Cc4cccc(CCC(N)=O)c4)n3)c2)c(F)cc2[nH]ccc12 [Example 17, 3-(3-((3-(2-Fluoro-5-((6-fluoro-4-methyl-1H-indol-5-yl)oxy)phenyl)-1H-pyrazol-1-yl)methyl)phenyl)propanamide] | C (C: ≤5° C.)
Cc1c(Oc2ccc(F)c(-c3ccn(Cc4cnc(CCC(=O)O)s4)n3)c2)c(F)cc2[nH]ccc12 [Example 18, 3-(5-((3-(2-Fluoro-5-((6-fluoro-4-methyl-1H-indol-5-yl)oxy)phenyl)-1H-pyrazol-1-yl)methyl)thiazol-2-yl)propanoic acid] | C (C: ≤5° C.)
Cc1c(Oc2cccc(-c3nn(Cc4cccc(CCC(=O)O)c4)cc3F)c2)c(F)cc2[nH]ccc12 [Example 19, 3-(3-((4-Fluoro-3-(3-((6-fluoro-4-methyl-1H-indol-5-yl)oxy)phenyl)-1H-pyrazol-1-yl)methyl)phenyl)propanoic acid] | C (C: ≤5° C.)
Cc1c(Oc2cccc(-c3c(F)cnn3Cc3cccc(CCC(=O)O)c3)c2)c(F)cc2[nH]ccc12 [Example 20, 3-(3-((4-Fluoro-5-(3-((6-fluoro-4-methyl-1H-indol-5-yl)oxy)phenyl)-1H-pyrazol-1-yl)methyl)phenyl)propanoic acid] | C (C: ≤5° C.)
Cc1c(Oc2cccc(-c3ccc(Cc4cccc(CCC(=O)O)c4)[nH]3)c2)c(F)cc2[nH]ccc12 [Example 21, 3-(3-((5-(3-((6-Fluoro-4-methyl-1H-indol-5-yl)oxy)phenyl)-1H-pyrrol-2-yl)methyl)phenyl)propanoic acid] | C (C: ≤5° C.)
